In patent US20210177751A1, “HYPOTONIC HYDROGEL FORMULATIONS FOR ENHANCED TRANSPORT OF ACTIVE AGENTS AT MUCOSAL SURFACES” (The Johns Hopkins University, priority 2017, published 2021):

Tests used:
C57/B6 mice = assay: laser-induced choroidal neovascularization (CNV) in mice; format: in vivo, mouse; details: topical daily for 7 days
Protocol: C57/B6 mice where used to test the topical delivery of sunitinib malate (5 uL at 4 mg/mL) and acriflavine (5 uL at 5 mg/mL) in preventing choroidal neovascularization (CNV) in mice after laser induced rupture of Bruch's membrane in three locations. After laser, both drugs either dissolved in 12% F127 or a aqueous vehicle control (saline or water), were dosed daily for 7 days.

[1] = ocular tissue distribution in Dutch belted rabbits (LC-MS); format: in vivo, rabbit; details: 4 mg/ml in 12% F127, daily for 14 days; tissues 6 h after final dose
Protocol: (§1) Sunitnib malate was dissolved in 12% F127 at a concentration of 4 mg/ml and dosed topically to pigmented (Dutch belted) rabbits and pigmented pigs (juvenile farm pigs) once per day for a total of 14 days or 5 days, respectively. Dosing in both rabbits and pigs occurred without anesthesia and 50 uL or 50˜100 uL of an eye drop was administered, respectively. However, dosing in pigs occurred while distracted with food. Tissues were collected 6 h after the final dose for rabbits and 1 h after the final dose for pigs. The drug concentrations were measured by LC-MS.

[2] = ocular tissue distribution in farm pigs (LC-MS); format: in vivo, pig; details: 4 mg/ml in 12% F127, daily for 5 days; tissues 1 h after final dose
Protocol: as §1

[3] = tested on: retinal ganglion cells (RGCs); assay: optic nerve crush after 5 daily topical doses, pigmented rats; format: in vivo, rat (Brown Norway); details: in 12% F127, daily for 5 days before crush; 14 days after crush; pigmented rats (Brown Norway)
Protocol: Rats were dosed topically with sunitinib malate (5 uL at 4 mg/mL) in 12% F127 daily for 5 days unilaterally. Then, the optic nerve head was exposed and crushed unilaterally and the contralateral eye was used as the control for comparison. 14 days after crushing the nerve (without additional topical dosing), the tissues were isolated for qPCR for genes expressed by retinal ganglion cells (RGCs).

[4] = tested on: retinal ganglion cells (RGCs); assay: optic nerve crush with once weekly topical dosing; format: in vivo, rat (Brown Norway); details: Day 22
Protocol: Pigmented rats (Brown Norway) were dosed topically (5 uL at 4 mg/mL) with sunitinib malate in 12% F127 or in saline once weekly unilaterally. The optic nerve head was exposed and crushed unilaterally on Day 8 and the contralateral eye was used as the control for comparison. 14 days after crushing the nerve (Day 22), the tissues were isolated for qPCR for genes expressed by retinal ganglion cells (RGCs).

[5] = dissolved in aqueous vehicle control (saline or water)

Compound | suppression of choroidal neovascularization (C57/B6 mice; dissolved in 12% F127) | suppression of choroidal neovascularization (C57/B6 mice; [5]) | sunitinib and N-desethyl sunitinib levels in ocular tissues and fluids [1] | sunitinib and N-desethyl sunitinib levels in ocular tissues and fluids [2] | protection of RGCs (qPCR for RGC genes) [3] | protection of RGCs (qPCR for RGC genes) ([4]; in 12% F127, once weekly) | protection of RGCs (qPCR for RGC genes) ([4]; in saline, once weekly)
acriflavine | efficacious in suppressing neovascularization in the choroid | Only the formulations containing 12% F127 were efficacious | – | – | – | – | –
CCN(CC)CCNC(=O)c1c(C)[nH]c(/C=C2\C(=O)Nc3ccc(F)cc32)c1C [sunitinib malate] | efficacious in suppressing neovascularization in the choroid | Only the formulations containing 12% F127 were efficacious | Therapeutically relevant levels of drug were found in the anterior and posterior segments | Therapeutically relevant levels of drug were found in the anterior and posterior segments | protection of RGCs | Protection of RGCs was only observed when sunitinib malate was dosed in 12% F127 | not when sunitinib malate was dosed in saline
